# Patent publication US8546409B2, “Methods of treatment for solid tumors” (priority 2009, dated 2013)
# pIC50: −log10 of the molar value. “Also recorded” adds a separate entry of the source.
# Legend:
# NCI-H522 = experiment: NCI panel growth inhibition, NCI-H522; type: cell-based; conditions: Homo sapiens, Non-Small Cell Lung Cancer
# From the text: (§1) Compound I has also been tested in a battery of tumor cell assays known as the NCI panel.
# EKVX = experiment: NCI panel growth inhibition, EKVX; type: cell-based; conditions: Homo sapiens, Non-Small Cell Lung Cancer
# From the text: as §1
# [1] = system: NCI panel cancer cell lines; experiment: NCI panel of tumor cell assays, summary over cell lines; type: cell-based; conditions: for Cell line number: GI50 less than 2 micromolar
# From the text: Compound I has also been tested in a battery of tumor cell assays known as the NCI panel. […] Using this measure, 1.8% of cell lines were particularly sensitive to Compound B at this level, while 39% were particularly sensitive to Compound I at the same concentration. […] Loss of PTEN activity often occurs in cancers, and enhances the sensitivity of a tumor to PI3K inhibitors. […] The following Table summarizes the cell lines found to be sensitive to Compound I and the known mutations in those cell lines.
# TK-10 = experiment: NCI panel growth inhibition, TK-10; type: cell-based; conditions: Homo sapiens, Renal
# From the text: as §1
# U251 = experiment: NCI panel growth inhibition, U251; type: cell-based; conditions: Homo sapiens, U-251, CNS Cancer
# From the text: as §1
# SN12C = experiment: NCI panel growth inhibition, SN12C; type: cell-based; conditions: Homo sapiens, Renal
# From the text: as §1
# SF-268 = experiment: NCI panel growth inhibition, SF-268; type: cell-based; conditions: Homo sapiens, CNS Cancer
# From the text: as §1
# MDA-MB-435 = experiment: NCI panel growth inhibition, MDA-MB-435; type: cell-based; conditions: Homo sapiens, Breast Cancer
# From the text: as §1
# NCI-H322M = experiment: NCI panel growth inhibition, NCI-H322M; type: cell-based; conditions: Homo sapiens, Non-Small Cell Lung Cancer
# From the text: as §1
# [2] = system: Akt phosphorylation in T47D (breast cancer); experiment: Phosphorylation of Akt in T47D cells (FIG. 4); type: cell-based; conditions: 10 micromolar
# From the text: This distinguishes compound I from other known PI3K inhibitors in development for treatment of solid tumors, which are believed to act primarily at the p110α isoform or on p110α plus other isoforms, or even on all PI3Ks plus mTOR.
# NCI-H226 = experiment: NCI panel growth inhibition, NCI-H226; type: cell-based; conditions: Homo sapiens, Non-Small Cell Lung Cancer
# From the text: as §1
# OVCAR-3 = experiment: NCI panel growth inhibition, OVCAR-3; type: cell-based; conditions: Homo sapiens, Ovarian
# From the text: as §1
# HCT-116 = experiment: NCI panel growth inhibition, HCT-116; type: cell-based; conditions: Homo sapiens, Colon Cancer
# From the text: as §1
# SF-295 = experiment: NCI panel growth inhibition, SF-295; type: cell-based; conditions: Homo sapiens, CNS Cancer
# From the text: as §1
# HCT-15 = experiment: NCI panel growth inhibition, HCT-15; type: cell-based; conditions: Homo sapiens, Colon Cancer
# From the text: as §1
# [3] = Half-life in vivo in rats
# From the text: Treatments of the invention typically involve administration of compound Ito a subject in need of treatment on a daily basis for at least one week or more than one week, often for 2-4 weeks, and sometimes for 1-3 months or more. The half-life of Compound I in vivo in mice and rats is several hours—see FIG. 6. It is thus sometimes desirable to administer compound I in multiple doses each day, in order to maintain efficacious plasma levels over a prolonged period of time. Administration may be done in two doses per day, or three doses per day, or in some embodiments, four doses per day or more, particularly when Compound I is administered orally. Alternatively, Compound I can be administered intravenously at a rate that maintains an efficacious plasma level for a prolonged period of time. Suitably, it would be administered at a rate to achieve a plasma level of at least about 1 micromolar, or at least 3 micromolar, or at least 5 micromolar.
# DNA-PK = DNA-PK (Homo sapiens, UniProt P78527); experiment: Inhibition of kinase activity of other lipid kinases, DNA-PK; type: biochemical; conditions: read-out: IC-50 for inhibition of kinase activity, DNA-PK
# CAKI-1 = experiment: NCI panel growth inhibition, CAKI-1; type: cell-based; conditions: Homo sapiens, Renal
# From the text: as §1
# UACC-257 = experiment: NCI panel growth inhibition, UACC-257; type: cell-based; conditions: Homo sapiens, Melanoma
# From the text: as §1
# in vivo = conditions: rat, 60 mg/kg/day
# Procedure: Compound I was dosed at 60, 120, or 240 mg/kg/day administered as a single dose for up to 14 days in healthy rats. […] The peak concentration of compound I (Cmax) and area under the curve (AUC) for tolerated doses were higher than those observed with effective doses of Compound I in the xenograft model tumors in mice.
# T-47D = experiment: NCI panel growth inhibition, T-47D; type: cell-based; conditions: Homo sapiens, T47D, Breast Cancer
# From the text: as §1
# A549 = experiment: NCI panel growth inhibition, A549; type: cell-based; conditions: Homo sapiens, Non-Small Cell Lung Cancer
# From the text: as §1
# NCI-H23 = experiment: NCI panel growth inhibition, NCI-H23; type: cell-based; conditions: Homo sapiens, Non-Small Cell Lung Cancer
# From the text: as §1
# HS 578T = experiment: NCI panel growth inhibition, HS 578T; type: cell-based; conditions: Homo sapiens, Breast Cancer
# From the text: as §1
# OVCAR-4 = experiment: NCI panel growth inhibition, OVCAR-4; type: cell-based; conditions: Homo sapiens, Ovarian
# From the text: as §1
# OVCAR-5 = experiment: NCI panel growth inhibition, OVCAR-5; type: cell-based; conditions: Homo sapiens, Ovarian
# From the text: as §1
# SW-620 = experiment: NCI panel growth inhibition, SW-620; type: cell-based; conditions: Homo sapiens, Colon Cancer
# From the text: as §1
# HT29 = experiment: NCI panel growth inhibition, HT29; type: cell-based; conditions: Homo sapiens, HT-29, Colon Cancer
# From the text: as §1
# T47D = experiment: Tumor cell culture growth, optical density at 459 nm (FIG. 7), T47D; type: cell-based; conditions: 5-10 micromolar
# SNB-75 = experiment: NCI panel growth inhibition, SNB-75; type: cell-based; conditions: Homo sapiens, CNS Cancer
# From the text: as §1
# A498 xenografts = experiment: Renal cancer xenografts in nu/nu mice (FIG. 9); type: in vivo; conditions: 30 mg/kg BID, 20 days, female nu/nu mice
# Procedure: Female nu/nu mice bearing A498 xenografts (human renal cancer cells) were maintained until tumor volume measured about 100 mm^3. At that point, treatment began with compound I at a rate of 30 mg/kg administered twice per day.
smiles,measurement,setting,value
C[C@H](Nc1ncnc2[nH]cnc12)c1nc2ccc(F)cc2c(=O)n1-c1ccccc1 [Compound I],GI50,NCI-H522,51.8 µM
same,GI50,EKVX,16.7 µM
same,% EC50 < 2 μM,[1]; Breast,62%
same,Cell line number,[1]; Breast,5/8
same,% EC50 < 2 μM,[1]; CNS,50%
same,Cell line number,[1]; CNS,3/6
same,% EC50 < 2 μM,[1]; Colon,14%
same,Cell line number,[1]; Colon,1/7
same,% EC50 < 2 μM,[1]; Melanoma,12%
same,Cell line number,[1]; Melanoma,1/8
same,Cell lines with mutations in PTEN inhibited,[1]; NCI panel cell lines known to have PTEN mutations,70%
same,% EC50 < 2 μM,[1]; NSCLC,11%
same,Cell line number,[1]; NSCLC,1/9
same,% EC50 < 2 μM,[1]; Ovarian,33%
same,Cell line number,[1]; Ovarian,2/6
same,Cell line number,[1]; Prostate,2/2
same,% EC50 < 2 μM,[1]; Prostrate,100%
same,% EC50 < 2 μM,[1]; Renal,75%
same,Cell line number,[1]; Renal,6/8
same,Cell lines particularly sensitive (GI50 of 2 micromolar or less),[1]; all NCI panel cell lines,39%
same,GI50,TK-10,1.24 µM
same,GI50,U251,59.6 µM
same,GI50,SN12C,22.5 µM
same,GI50,SF-268,1.89 µM
same,GI50,MDA-MB-435,43.1 µM
same,GI50,NCI-H322M,10.5 µM
same,Phosphorylation of Akt,[2],inhibits phosphorylation of Akt
same,GI50,NCI-H226,100 µM
same,GI50,OVCAR-3,0.316 µM
same,GI50,HCT-116,37.9 µM
same,GI50,SF-295,1.81 µM
same,GI50,HCT-15,30.3 µM
same,Half-life in vivo,[3],several hours
same,pIC50,DNA-PK,4.89
same,GI50,CAKI-1,1.01 µM
same,GI50,UACC-257,17.4 µM
same,AUC,in vivo,58000 ng·h/mL
same,Cmax,in vivo,7300 ng/mL
same,GI50,T-47D,0.571 µM
same,GI50,A549,20.7 µM
same,GI50,NCI-H23,100 µM
same,GI50,HS 578T,2.24 µM
same,GI50,OVCAR-4,100 µM
same,GI50,OVCAR-5,27.7 µM
same,GI50,SW-620,69.3 µM
same,GI50,HT29,16.5 µM
same,Inhibition of tumor cell culture growth,T47D,strong inhibition of growth
same,GI50,SNB-75,0.0594 µM
same,Tumor volume of A498 xenograft,A498 xenografts,significantly inhibited growth; also recorded: tumor volume approximately doubled
same,Tumor volume of A498 xenograft,A498 xenografts; listed as compound I,significant reduction in tumor growth
